In patent US20180042982A1, “Methods for Treating HCV” (priority 2013, published 2018):

Columns and labels:
HCV replicon Genotype 3a = test: HCV subgenomic stable replicon cell culture assay, genotype 3a; type: cell-based; settings: Hepatitis C virus, read-out: Mean EC50, nM, ± Std. Dev.
Source text: (§1) However, these variants had in vitro replication capacities of only 1.5% and 9.2% that of their corresponding wild-type replicons.

[1] = test system: resistance-associated variants in GT 1a (H77) replicon; test: Activity against resistance-associated variants, GT 1a; type: cell-based, Hepatitis C virus
Source text: as §1

[2] = test system: resistance-associated variants in GT 1b (Con-1) replicon; test: Activity against resistance-associated variants, GT 1b; type: cell-based, Hepatitis C virus
Source text: as §1

[3] = test system: replicon containing GT3a NS3 protease; test: Resistant colony selection in replicon containing GT3a NS3 protease; type: cell-based, Hepatitis C virus; settings: concentrations ≧100-fold over its EC50 value
Source text: as §1

HCV = test: Anti-HCV efficacy of Compound 1 at different doses; set-up: species or system Hepatitis C virus; settings: 200-300 mg Compound 1 compared with 400 mg Compound 1

CC(C)(C)[C@@H]1NC(=O)O[C@@H]2CCC[C@H]2OC/C=C/C(F)(F)c2nc3ccccc3nc2O[C@@H]2C[C@@H](C(=O)N[C@]3(C(=O)NS(=O)(=O)C4(C)CC4)C[C@H]3C(F)F)N(C2)C1=O [Compound 1]
EC50 (HCV replicon Genotype 3a): 1.6 ± 0.49 nM | activity against common variants at NS3 amino acid positions 155 and 168 ([1]; GT1a variants conferring resistance to other HCV protease inhibitors): retained its activity | activity against NS5A inhibitor and NS5B inhibitor resistance-associated variants ([1]; M28T, M28V, Q30D, Q30R, Y93C, Y93H, Y93N, L31V+Y93H, C316Y, M414T, Y448C, Y448H, S556G and S559G in GT 1a): potent activity | inhibitory activity against NS3 resistance-associated variants ([1]; V36M, R155K, D168A and D168V in GT 1a (H77)): nearly equivalent to that against wild-type HCV replicon | activity against common variants at NS3 amino acid positions 155 and 168 ([2]; GT1b variants conferring resistance to other HCV protease inhibitors): retained its activity | activity against NS5A inhibitor and NS5B inhibitor resistance-associated variants ([2]; L28T, Y93H, S282T, C316Y, Y448H and S556G in GT 1b): potent activity | inhibitory activity against NS3 resistance-associated variants ([2]; T54A, R155K, D168V and V170A in GT 1b (Con-1)): nearly equivalent to that against wild-type HCV replicon | resistant colony selection [3]: selected very few colonies | anti-HCV efficacy of 200-300 mg versus 400 mg (HCV): comparable anti-HCV efficacy
